Tests used:
[1] = compound: O=[As]([O-])(O)O.[K+] [potassium arsenate]; assay: thermal stability z-score vs DMSO; higher = more thermally stabilized by treatment; settings: HeLa; arsenate concentration 1 mM
Procedure: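 Cellular thermal proteome profiling in HeLa cells treated with 1 mM arsenate for 1 h (DMSO pretreatment), heated to ten temperatures (37-66.3 °C). Soluble protein was quantified by TMT mass spectrometry relative to DMSO controls; the thermal stability score was transformed to a z-score; mean of n = 3 experiments.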

[2] = compound: NC(=O)CCCCC1CCSS1 [lipoamide]; assay: as above; settings: HeLa, lipoamide concentration 100 µM
Procedure: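 Cellular thermal proteome profiling in HeLa cells. Cells were treated with 100 µM lipoamide for 1 h, with or without 1 mM arsenate for a further 1 h, then heated to ten temperatures (37-66.3 °C), and soluble protein was quantified by TMT mass spectrometry relative to 0.1% DMSO controls. The thermal stability score (sum of log2 fold changes minus the abundance score) was transformed to a z-score; mean of n = 3 experiments.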

[3] = arsenate co-treatment: 1 mM arsenate 1 h
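Note: each temperature applied for 3 min, abundance score taken as mean log2 fold change at the two lowest temperatures, z-score obtained by mean subtraction and division by SD.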

Sequence of UniProt Q7Z3E2 (Q7Z3E2 whole entry): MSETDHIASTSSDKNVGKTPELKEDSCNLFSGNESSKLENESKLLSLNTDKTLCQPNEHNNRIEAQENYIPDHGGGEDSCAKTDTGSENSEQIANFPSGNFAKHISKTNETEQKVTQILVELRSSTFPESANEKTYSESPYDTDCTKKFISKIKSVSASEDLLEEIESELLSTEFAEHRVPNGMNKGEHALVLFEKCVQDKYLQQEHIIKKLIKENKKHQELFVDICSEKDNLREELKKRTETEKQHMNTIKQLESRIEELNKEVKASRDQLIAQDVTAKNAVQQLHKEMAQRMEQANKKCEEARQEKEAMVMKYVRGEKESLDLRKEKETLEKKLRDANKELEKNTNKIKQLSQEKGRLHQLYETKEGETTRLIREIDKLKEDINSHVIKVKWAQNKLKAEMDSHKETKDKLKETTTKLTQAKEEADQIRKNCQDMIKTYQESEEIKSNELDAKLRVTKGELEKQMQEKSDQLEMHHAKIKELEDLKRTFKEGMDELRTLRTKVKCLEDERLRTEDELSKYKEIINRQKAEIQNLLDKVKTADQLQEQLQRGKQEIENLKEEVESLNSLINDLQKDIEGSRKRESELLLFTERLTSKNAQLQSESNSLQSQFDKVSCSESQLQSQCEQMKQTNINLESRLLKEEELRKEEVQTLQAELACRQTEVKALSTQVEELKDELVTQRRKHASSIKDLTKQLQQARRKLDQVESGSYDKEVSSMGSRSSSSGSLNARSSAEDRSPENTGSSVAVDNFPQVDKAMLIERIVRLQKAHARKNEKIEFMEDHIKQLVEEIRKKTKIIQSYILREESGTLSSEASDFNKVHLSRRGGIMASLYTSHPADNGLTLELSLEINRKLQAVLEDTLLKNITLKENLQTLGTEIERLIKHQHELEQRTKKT
Sequence of UniProt P39748 (P39748 whole entry): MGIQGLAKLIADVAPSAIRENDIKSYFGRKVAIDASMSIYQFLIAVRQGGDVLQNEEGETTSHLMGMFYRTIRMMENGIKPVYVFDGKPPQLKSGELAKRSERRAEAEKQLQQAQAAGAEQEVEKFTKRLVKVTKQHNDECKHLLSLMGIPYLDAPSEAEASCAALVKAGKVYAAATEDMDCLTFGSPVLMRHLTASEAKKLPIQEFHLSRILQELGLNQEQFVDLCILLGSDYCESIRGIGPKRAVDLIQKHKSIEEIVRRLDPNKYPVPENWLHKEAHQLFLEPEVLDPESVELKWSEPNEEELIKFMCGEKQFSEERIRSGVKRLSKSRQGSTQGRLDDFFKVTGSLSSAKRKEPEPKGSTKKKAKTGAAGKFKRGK
Sequence of UniProt Q9C0C2 (Q9C0C2 whole entry): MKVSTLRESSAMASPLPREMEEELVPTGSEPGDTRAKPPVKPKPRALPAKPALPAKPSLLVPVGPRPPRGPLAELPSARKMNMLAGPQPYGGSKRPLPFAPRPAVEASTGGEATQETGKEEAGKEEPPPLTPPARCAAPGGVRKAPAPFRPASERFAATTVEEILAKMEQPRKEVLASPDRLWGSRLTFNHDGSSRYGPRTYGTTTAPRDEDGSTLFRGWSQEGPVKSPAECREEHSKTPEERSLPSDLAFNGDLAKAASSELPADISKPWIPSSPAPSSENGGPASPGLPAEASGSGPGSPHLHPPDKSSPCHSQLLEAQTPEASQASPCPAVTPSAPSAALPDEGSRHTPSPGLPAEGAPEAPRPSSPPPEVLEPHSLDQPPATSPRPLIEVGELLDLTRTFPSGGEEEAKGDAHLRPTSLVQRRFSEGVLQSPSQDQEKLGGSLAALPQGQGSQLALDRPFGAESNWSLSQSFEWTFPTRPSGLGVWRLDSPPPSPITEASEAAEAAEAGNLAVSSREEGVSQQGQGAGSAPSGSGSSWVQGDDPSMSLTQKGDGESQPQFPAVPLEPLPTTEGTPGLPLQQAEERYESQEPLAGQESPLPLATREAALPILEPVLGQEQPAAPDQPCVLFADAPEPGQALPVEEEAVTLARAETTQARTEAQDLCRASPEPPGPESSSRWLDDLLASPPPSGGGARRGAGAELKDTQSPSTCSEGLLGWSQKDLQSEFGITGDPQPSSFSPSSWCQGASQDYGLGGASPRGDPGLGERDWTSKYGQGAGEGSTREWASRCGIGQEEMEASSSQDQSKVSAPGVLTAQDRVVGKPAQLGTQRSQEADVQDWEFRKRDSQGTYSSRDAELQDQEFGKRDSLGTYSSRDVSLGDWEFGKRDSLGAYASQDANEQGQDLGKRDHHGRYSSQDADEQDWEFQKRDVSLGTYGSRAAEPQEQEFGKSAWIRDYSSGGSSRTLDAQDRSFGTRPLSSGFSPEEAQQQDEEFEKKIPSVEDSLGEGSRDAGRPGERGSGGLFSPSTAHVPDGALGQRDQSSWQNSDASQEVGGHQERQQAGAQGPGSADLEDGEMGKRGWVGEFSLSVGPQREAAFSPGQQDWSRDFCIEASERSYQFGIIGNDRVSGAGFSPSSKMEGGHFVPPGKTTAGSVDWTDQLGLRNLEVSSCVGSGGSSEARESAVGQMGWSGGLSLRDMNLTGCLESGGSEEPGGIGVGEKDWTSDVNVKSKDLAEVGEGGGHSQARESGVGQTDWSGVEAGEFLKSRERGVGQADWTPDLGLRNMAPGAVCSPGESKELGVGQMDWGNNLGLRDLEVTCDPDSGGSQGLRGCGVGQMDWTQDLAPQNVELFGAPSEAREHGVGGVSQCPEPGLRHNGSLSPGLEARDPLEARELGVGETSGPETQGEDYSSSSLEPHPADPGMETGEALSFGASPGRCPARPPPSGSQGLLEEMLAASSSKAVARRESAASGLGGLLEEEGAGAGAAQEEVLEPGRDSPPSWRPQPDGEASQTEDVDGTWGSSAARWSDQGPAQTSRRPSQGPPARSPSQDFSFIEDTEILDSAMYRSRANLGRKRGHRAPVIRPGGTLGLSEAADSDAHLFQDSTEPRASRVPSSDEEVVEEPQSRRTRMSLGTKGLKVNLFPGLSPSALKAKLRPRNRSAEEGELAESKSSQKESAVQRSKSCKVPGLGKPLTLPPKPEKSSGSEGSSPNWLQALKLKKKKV
Sequence of UniProt Q96FV9 (Q96FV9 whole entry): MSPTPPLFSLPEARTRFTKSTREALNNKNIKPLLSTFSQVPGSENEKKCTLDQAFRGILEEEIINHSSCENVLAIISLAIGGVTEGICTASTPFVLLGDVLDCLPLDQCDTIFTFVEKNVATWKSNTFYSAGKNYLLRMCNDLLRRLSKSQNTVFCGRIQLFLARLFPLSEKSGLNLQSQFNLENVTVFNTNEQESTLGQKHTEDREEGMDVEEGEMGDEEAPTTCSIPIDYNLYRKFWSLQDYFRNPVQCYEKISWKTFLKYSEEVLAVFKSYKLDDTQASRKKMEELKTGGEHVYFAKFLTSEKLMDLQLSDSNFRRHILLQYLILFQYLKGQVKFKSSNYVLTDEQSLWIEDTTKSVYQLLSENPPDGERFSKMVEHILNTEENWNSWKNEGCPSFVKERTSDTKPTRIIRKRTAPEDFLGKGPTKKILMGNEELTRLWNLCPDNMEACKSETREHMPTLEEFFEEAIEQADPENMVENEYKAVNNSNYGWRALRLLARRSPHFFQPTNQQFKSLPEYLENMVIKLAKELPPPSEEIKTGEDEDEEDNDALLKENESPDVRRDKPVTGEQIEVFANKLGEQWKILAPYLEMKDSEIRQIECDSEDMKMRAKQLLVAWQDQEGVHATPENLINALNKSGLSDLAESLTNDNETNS
Sequence of UniProt P35250 (P35250 whole entry): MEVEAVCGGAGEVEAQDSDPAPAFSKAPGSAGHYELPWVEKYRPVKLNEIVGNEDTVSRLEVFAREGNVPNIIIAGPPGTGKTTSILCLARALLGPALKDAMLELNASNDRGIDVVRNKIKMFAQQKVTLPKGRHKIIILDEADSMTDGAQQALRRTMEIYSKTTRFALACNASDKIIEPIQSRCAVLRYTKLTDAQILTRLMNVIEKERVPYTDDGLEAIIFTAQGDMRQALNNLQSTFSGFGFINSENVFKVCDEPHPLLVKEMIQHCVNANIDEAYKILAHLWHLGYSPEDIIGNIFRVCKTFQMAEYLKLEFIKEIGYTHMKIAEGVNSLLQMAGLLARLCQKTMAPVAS
Sequence of UniProt Q13619 (Q13619 whole entry): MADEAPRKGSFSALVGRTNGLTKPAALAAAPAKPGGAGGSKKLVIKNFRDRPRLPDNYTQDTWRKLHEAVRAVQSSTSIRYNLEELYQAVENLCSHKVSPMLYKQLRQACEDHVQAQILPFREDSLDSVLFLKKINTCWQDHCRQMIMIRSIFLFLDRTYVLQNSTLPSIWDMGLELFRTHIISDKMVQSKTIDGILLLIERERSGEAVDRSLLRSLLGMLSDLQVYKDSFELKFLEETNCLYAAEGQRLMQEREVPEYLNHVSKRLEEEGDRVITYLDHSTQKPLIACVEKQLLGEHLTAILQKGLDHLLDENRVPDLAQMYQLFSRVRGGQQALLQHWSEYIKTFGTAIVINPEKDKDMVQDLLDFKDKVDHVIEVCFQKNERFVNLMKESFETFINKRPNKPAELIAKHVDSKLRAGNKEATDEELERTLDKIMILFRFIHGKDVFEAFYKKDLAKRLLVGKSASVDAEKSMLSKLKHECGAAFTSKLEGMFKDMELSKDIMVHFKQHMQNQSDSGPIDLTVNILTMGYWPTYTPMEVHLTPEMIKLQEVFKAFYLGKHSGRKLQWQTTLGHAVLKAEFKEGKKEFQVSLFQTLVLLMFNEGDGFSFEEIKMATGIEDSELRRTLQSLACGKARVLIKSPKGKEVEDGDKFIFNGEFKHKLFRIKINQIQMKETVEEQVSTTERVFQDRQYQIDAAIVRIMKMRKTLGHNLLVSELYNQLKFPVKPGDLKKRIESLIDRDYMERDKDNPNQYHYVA
Sequence of UniProt O95707 (O95707 whole entry): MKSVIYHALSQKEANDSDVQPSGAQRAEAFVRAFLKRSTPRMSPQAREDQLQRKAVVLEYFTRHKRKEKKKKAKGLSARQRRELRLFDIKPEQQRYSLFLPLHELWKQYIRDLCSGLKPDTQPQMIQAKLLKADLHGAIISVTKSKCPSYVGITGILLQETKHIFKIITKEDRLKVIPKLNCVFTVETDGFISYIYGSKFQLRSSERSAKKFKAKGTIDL

Target	thermal stability z-score [1]	thermal stability z-score [2, 3]	thermal stability z-score ([2]; arsenate co-treatment: none)
CCDC186 (UniProt Q7Z3E2)	0.0522	-0.0502	-0.00496
SORT1 (UniProt Q99523)	1.41	-0.0906	0.945
THOC1 (UniProt Q96FV9)	-0.258	0.298	-0.0559
LRP6 (UniProt O75581)	-0.531	-2.59	-1.1
PACSIN3 (UniProt Q9UKS6)	-0.842	0.00517	0.149
SLC25A28 (UniProt Q96A46)	1.81	0.65	0.529
MECR (UniProt Q9BV79)	0.152	0.217	-0.251
TRAFD1 (UniProt O14545)	-2.25	-1.34	-0.816
TNS4 (UniProt Q8IZW8)	-0.0861	-0.0278	-0.078
NECTIN2 (UniProt Q92692)	0.0945	0.434	0.196
HINT2 (UniProt Q9BX68)	-1.98	-0.459	-0.337
STAT2 (UniProt P52630)	0.171	-0.0423	0.0157
PFDN1 (UniProt O60925)	0.744	1.42	1.53
MRPS7 (UniProt Q9Y2R9)	0.102	-1.12	-0.496
GPN2 (UniProt Q9H9Y4)	-0.222	0.0332	0.0213
C17ORF80 (UniProt Q9BSJ5)	-0.529	-1.48	-1.08
HPDL (UniProt Q96IR7)	1.13	1.09	0.497
GSTM3 (UniProt P21266)	1.48	0.731	0.402
ME2 (UniProt P23368)	-1.26	0.621	-0.0427
FEN1 (UniProt P39748)	0.572	-0.489	0.469
SUMF1 (UniProt Q8NBK3)	-0.194	-1	-0.419
CUL4A (UniProt Q13619)	-0.0896	0.0347	-0.214
PCSK9 (UniProt Q8NBP7)	0.0738	-0.578	-0.462
VWA5A (UniProt O00534)	-0.235	-0.245	0.147
MAVS (UniProt Q7Z434)	-0.963	0.0772	0.294
DPY19L1 (UniProt Q2PZI1)	-0.259	-0.0328	-0.259
ANAPC4 (UniProt Q9UJX5)	-1.3	-0.529	-0.278
LRP1 (UniProt Q07954)	-0.0899	-1.1	-1.01

Target	thermal stability z-score [1]	thermal stability z-score [2, 3]	thermal stability z-score ([2]; arsenate co-treatment: none)
ATP11B (UniProt Q9Y2G3)	-1.03	0.0989	-0.588
TMEM9B (UniProt Q9NQ34)	0.838	0.157	0.52
DNAJB11 (UniProt Q9UBS4)	0.319	-2.65	-2.51
AP4E1 (UniProt Q9UPM8)	-0.068	-0.117	-0.092
ATP6V0A2 (UniProt Q9Y487)	-0.424	-0.105	0.146
POP4 (UniProt O95707)	-0.193	0.462	0.069
PSMB7 (UniProt Q99436)	0.481	1.04	0.99
NOLC1 (UniProt Q14978)	-0.695	0.36	0.113
MNAT1 (UniProt P51948)	0.102	-0.257	-0.423
DIS3L (UniProt Q8TF46)	0.0192	0.0339	0.0425
NDUFAF3 (UniProt Q9BU61)	-0.147	-0.122	-0.105
SCML2 (UniProt Q9UQR0)	-0.22	-0.0267	-0.0968
MME (UniProt P08473)	0.585	-0.46	-1.37
DCTN5 (UniProt Q9BTE1)	-0.329	-0.414	-0.0773
OGFOD3 (UniProt Q6PK18)	-0.0712	0.0324	-0.274
GPX8 (UniProt Q8TED1)	0.394	-4.37	-5.4
RIPK1 (UniProt Q13546)	0.39	-0.595	-1.03
RFC2 (UniProt P35250)	0.381	-0.0963	-0.26
TNKS1BP1 (UniProt Q9C0C2)	3.12	-0.0132	0.146
PUS3 (UniProt Q9BZE2)	2.26	0.378	-0.095
RFC4 (UniProt P35249)	0.802	-0.184	-0.331
PRKCDBP (UniProt Q969G5)	0.331	1.06	-0.0261
AVL9 (UniProt Q8NBF6)	0.203	0.0764	0.143
CDC37L1 (UniProt Q7L3B6)	0.23	-0.275	-0.0638
PNO1 (UniProt Q9NRX1)	-0.698	0.465	0.362
NDUFA5 (UniProt Q16718)	0.101	-0.0074	-0.146
CNPY4 (UniProt Q8N129)	0.532	-1.84	-1.57

From the supplement of paper PMC12463676, “Small-molecule dissolution of stress granules by redox modulation benefits ALS models” (Nature Chemical Biology, 2025)
